Data from EP4772497A1, “POLYMORPHS OF NITROGEN-CONTAINING HETEROCYCLIC COMPOUNDS, AND USES THEREOF” (BNH Research Co., Ltd., priority 2023, dated 2025).
Converted amounts (≈) assume the structure as drawn.

What was measured:
[1] = Parallel artificial membrane permeability assay (PAMPA) for BBB permeability; format: in vitro ADME; conditions: PAMPA, pH 7.2, BBB lipid membrane, PBS (pH 7.2); read-out: PAMPA Pe
Procedure: • PAMPA: PMBBB-096 Kit • Assay format: 96-well plate • Reference substance: Imipramine (H) (10 µM) • Test substance concentration: 10 µM • Number of replicates: 3 • Reaction time: 6 hours at 25°C on a shaker (75 - 80 rpm) • Analytical method: LC-MS/MS • Data processing: Pe (cm/s)
The test compounds (crystalline forms A and C) were dissolved in DMSO at a concentration of 10 mM […] to prepare standard solutions. Next, dried brain lipids were resuspended in 600 µL dodecane to prepare a BBB lipid solution in dodecane. Pipetting up and down was repeated (~100 times) until all dried brain lipids were dissolved (vortexing or sonication may be helpful). A 10 µM reaction solution in PBS containing 5% DMSO was prepared.
The experiments were conducted in a 96-well plate using the prepared reaction solution of each test compound and the BBB lipid solution according to the following assay procedure. • 1. 500 µL of a 500 µM test compound solution (prepared by mixing 25 µL of a 10 mM test compound + 475 µL of PBS (pH 7.2) in DMSO) was prepared in a separate centrifuge tube. When a permeability control was used, it was diluted to 500 µM using PBS (prepared by mixing 25 µL of permeability control + 475 µL of PBS (pH 7.2)). • 2. For each test compound and control, a 200 µM equilibrium standard was prepared in a separate tube (by mixing 80 µL of 500 µM test compound or control with 120 µL of PBS (pH 7.2)). […] The absorbance spectrum from 200 nm to 500 nm was measured at 10 nm intervals to determine the peak absorbance of the test compounds. […] The peak absorbances of the high-permeability and low-permeability controls are 250 nm and 270 nm, respectively.
For the compounds and permeability controls, the permeability rate (Pe) was determined using the following equation: Pe = C × −ln(1−(ODA)/(ODE))cm/s [formula]
Here, ODA is the absorbance of the acceptor solution minus the blank, and ODE is the absorbance of the equilibrium standard minus the blank. For each absorbance value, the peak absorbance determined for each test was used. […]

[2] = Solubility assay of crystalline form A in 17 solvents; format: physicochemical; conditions: thermodynamic from solid
Procedure: For solubility assay, about 5 mg or about 10 mg of crystalline form A was weighed into a 2 mL glass vial. A 20 µL aliquot of each of the 17 solvents listed in Table 8 was added to the vial to dissolve the drug substance. For about 5 mg of crystalline form A, the drug substance was dissolved at 25°C; and for about 10 mg of crystalline form A, the drug substance was dissolved at 50°C. To aid dissolution, vortexing and sonication were applied to facilitate dissolution, and the maximum volume of each solvent added was 1 mL.

Molecule `C[C@@H]1CC[C@H](C(=O)O)CN1C(=O)Cc1ccc(F)cc1Cl` [Crystalline form A, (3S,6R)-1-(2-(2-chloro-4-fluorophenyl)acetyl)-6-methylpiperidine-3-carboxylic acid] has a Papp at 6 h, 10 µM [1] of 0.00925 ×10⁻⁶ cm/s, a solubility ([2]; organic solvent or mixture, 1,4-Dioxane, 25°C) greater than 250 mg/mL and a solubility ([2]; organic solvent or mixture, 1,4-Dioxane, 50°C) greater than 500 mg/mL. For the same molecule, the solubility ([2]; organic solvent or mixture, 2-MeTHF, 25°C) was greater than 250 mg/mL, the solubility ([2]; organic solvent or mixture, 2-MeTHF, 50°C) was greater than 500 mg/mL and the solubility ([2]; organic solvent or mixture, Acetone, 25°C) was 125 to 250 mg/mL (≈ 398 to 797 mM). The solubility ([2]; organic solvent or mixture, Acetone, 50°C) was greater than 500 mg/mL, the solubility ([2]; organic solvent or mixture, Acetonitrile, 25°C) was 41 to 50 mg/mL (≈ 131 to 159 mM) and the solubility ([2]; organic solvent or mixture, Acetonitrile, 50°C) was greater than 500 mg/mL. The solubility ([2]; organic solvent or mixture, DMF, 25°C) was greater than 250 mg/mL, the solubility ([2]; organic solvent or mixture, DMF, 50°C) was greater than 500 mg/mL and the solubility ([2]; organic solvent or mixture, DMSO, 25°C) was greater than 250 mg/mL. For the same molecule, the solubility ([2]; organic solvent or mixture, DMSO, 50°C) was greater than 500 mg/mL, the solubility ([2]; organic solvent or mixture, Dichloromethane, 25°C) was greater than 250 mg/mL and the solubility ([2]; organic solvent or mixture, Dichloromethane, 50°C) was greater than 500 mg/mL. The solubility ([2]; organic solvent or mixture, Ethanol, 25°C) was 125 to 250 mg/mL (≈ 398 to 797 mM), the solubility ([2]; organic solvent or mixture, Ethanol, 50°C) was greater than 500 mg/mL and the solubility ([2]; organic solvent or mixture, Ethyl acetate, 25°C) was 41 to 50 mg/mL (≈ 131 to 159 mM). The solubility ([2]; organic solvent or mixture, Ethyl acetate, 50°C) was 250 to 500 mg/mL (≈ 797 to 1590 mM), the solubility ([2]; organic solvent or mixture, Heptane, 25°C) was less than 5 mg/mL and the solubility ([2]; organic solvent or mixture, Heptane, 50°C) was less than 10 mg/mL. For the same molecule, the solubility ([2]; organic solvent or mixture, Isopropyl acetate, 25°C) was 63 to 83 mg/mL (≈ 201 to 265 mM), the solubility ([2]; organic solvent or mixture, Isopropyl acetate, 50°C) was 125 to 167 mg/mL (≈ 398 to 532 mM) and the solubility ([2]; organic solvent or mixture, MTBE, 25°C) was 16 to 20 mg/mL (≈ 51 to 63.7 mM). The solubility ([2]; organic solvent or mixture, MTBE, 50°C) was 33 to 50 mg/mL (≈ 105 to 159 mM), the solubility ([2]; organic solvent or mixture, Methanol, 25°C) was greater than 250 mg/mL and the solubility ([2]; organic solvent or mixture, Methanol, 50°C) was greater than 500 mg/mL. It also gave a solubility ([2]; organic solvent or mixture, Methyl ethyl ketone, 25°C) of 83 to 125 mg/mL (≈ 265 to 398 mM), a solubility ([2]; organic solvent or mixture, Methyl ethyl ketone, 50°C) of 250 to 500 mg/mL (≈ 797 to 1590 mM) and a solubility ([2]; organic solvent or mixture, Tetrahydrofuran, 25°C) greater than 250 mg/mL. The solubility ([2]; organic solvent or mixture, Tetrahydrofuran, 50°C) was greater than 500 mg/mL, the solubility ([2]; organic solvent or mixture, Toluene, 25°C) was 17 to 25 mg/mL (≈ 54.2 to 79.7 mM) and the solubility ([2]; organic solvent or mixture, Toluene, 50°C) was 50 to 100 mg/mL (≈ 159 to 319 mM). The solubility ([2]; Water, 25°C) was less than 5 mg/mL and the solubility ([2]; Water, 50°C) was less than 10 mg/mL.
